Measurements reported in patent US20090197805A1, “Insulin receptor antagonists and related compositions, uses and methods” (Novo Nordisk A/S, priority 2005, published 2009).
Ends that are not written are not given here.

What was measured:
SGBS cells = test: PIRA antagonist assay: insulin stimulated 14C-glucose uptake; type: cell-based; conditions: SGBS cells (human adipocyte cell line); FIG. 1
Protocol: In order to identify an insulin receptor binding peptide as an antagonist (PIRA), a candidate peptide can be tested in a glucose uptake assay in e.g. SGBS cells (a human adipocyte cell line) or primary rodent adipocytes. Briefly, the cells are incubated with various concentrations of insulin and subsequently ^14C-glucose uptake is measured. To test a peptide for antagonist properties, a submaximally stimulating concentration of insulin (e.g., resulting in half maximal insulin response) is added and also a dilution series of the peptide to be tested. If the peptide is a PIRA, the insulin induced response is reduced to or below the baseline response with increasing concentration of PIRA and the potency of the PIRA can be estimated from the concentration of PIRA necessary to observe the reduction in response.

insulin receptor = insulin receptor (Homo sapiens, UniProt P06213); test: Competition binding assay with 125I-labeled cognate ligand, insulin receptor; conditions: 125I-labeled ligand
Protocol: (§1) To test the selectivity of PIRA S661 for the insulin receptor versus a related receptor, the IGF1 receptor, competition binding assays were carried out using both receptors and their cognate ligands in ^125I-labeled form.

IGF1 receptor = IGF1 receptor (Homo sapiens, UniProt P08069); test: Competition binding assay with 125I-labeled cognate ligand, IGF1 receptor; conditions: 125I-labeled ligand, affinity too low to be measured
Protocol: as §1

Zucker Obese rats [1] = test: Glucose profile after i.v. S661 at different doses followed by i.p. human insulin; type: in vivo, rat
Protocol: FIG. 2. Glucose profile in Zucker obese (ZO) male rats after intravenous (i.v.) administration of different doses of peptidic insulin receptor antagonist S661, followed by intraperitoneal (i.p.) administration of human insulin.
Nine groups of 5 or 6 male, 16 week old Zucker Obese rats (Charles River) with an average weight of about 580 gram were kept on ad lib Purina 5008 and ad lib drinking water and fasted overnight for the experiment. The glucose level was tested at 20 minutes and 10 minutes prior to administration of the PIRA designated S661 (described above) Intravenous (i.v.) administration of different doses of S661 in PBS or vehicle was followed by (10 minutes after administration of S661) intraperitoneal (i.p.) administration of different amounts of human insulin in PBS or vehicle. Blood glucose levels were measured at 10, 20, 30, 40, 60, 80, 120, and 180 minutes after injection of insulin.

Zucker Obese rats [2] = test: Glucose profile after i.v. S661 followed after different times by i.p. human insulin; type: in vivo, rat; conditions: 30 nmol/kg S661 i.v. at various times before 30 nmol/kg human insulin i.p., FIG. 3
Protocol: FIG. 3. Glucose profile in ZO rats after i.v. administration of Insulin Receptor Antagonist, S661, followed after different times by i.p. administration of human insulin.
Eight groups of 5 to 7 male, 15 week old Zucker Obese rats (Charles River) with an average weight of about 550 gram were kept on ad lib Purina 5008 and ad lib drinking water and fasted overnight for the experiment. PIRA S661 in PBS was administered i.v. at 30 nmol/kg at various times before the i.p. administration of 30 nmol/kg human insulin in PBS.

[3] = 3 nmol/kg S661 i.v., 30 nmol/kg insulin i.p., Zucker Obese rats

GSLDESFYDWFERQLGGGSGGSSLEEEWAQIQCEVWGRGCPSY-amide (GSLDESFYDWFERQLGGGSGGSSLEEEWAQIQCEVWGRGCPSY-NH2; cysteine pairing not given here) [S661, peptidic insulin receptor antagonist]
effect on submaximally insulin stimulated glucose uptake (SGBS cells): inhibition of submaximally insulin stimulated glucose uptake
affinity for the insulin receptor relative to human insulin (insulin receptor): 48 % of that of human insulin
affinity for the IGF1 receptor relative to IGF1 (IGF1 receptor): at least 200.000 fold lower than that of IGF1
glucose levels as compared to control (Zucker Obese rats [1]; [3]): slightly higher
glucose levels as compared to insulin alone (Zucker Obese rats [1]; [3]): significantly higher levels
blood glucose levels versus insulin alone or only vehicle (Zucker Obese rats [1]; male Zucker Obese rats, fasted, S661 i.v. 10 minutes before i.p. human insulin, FIG. 2): significantly higher
time after administration at which still an effective antagonist (blood glucose) (Zucker Obese rats [2]): ≥ 6 h
